Measurements as given in patent US8349365B2, “Cellooligosaccharide-containing composition” (priority 2005, dated 2013).

Legend:
[1] = oil retention (rapeseed oil); type: physicochemical; conditions: same manner as in Example 4
Text: The oil retention of the cellooligosaccharide composition of the present invention is preferably 0.9 g/g. The term “oil retention” means the amount of oil absorbed per 1 g of powder measured by placing 2 g of a cellooligosaccharide composition on a glass plate, kneading powder with a spatula while adding rapeseed oil (Nissin Canola Oil, dropwise using a pipette, and using the point at which oil soaks out of the powder surface as the end point and is expressed by Oil retention (g/g)=amount of oil absorption (g)/amount of cellooligosaccharide composition (g). A greater value is preferable because separation or soaking out of oil, semisolid or liquid can be prevented when a food, a cosmetic, a drug, or a quasi-drug is produced with a prescription containing oil or a prescription containing a semisolid or a liquid at room temperature. The oil retention is more preferably in the range of 1.0 g/g and higher, particularly preferably in the range of 1.1 g/g and higher.

[2] = test system: rough skin, inner side of the forearm; assay: transepidermal water loss (TEWL) recovery test; type: in vivo, human
Text: The barrier function in the present invention is expressed by the recovery-promoting rate of transepidermal water loss, and the recovery-promoting rate of transepidermal water loss of the agent for improving barrier function of the present invention is preferably 10% or higher. The recovery-promoting rate referred to herein is expressed by a decreasing rate of relative transepidermal water loss of the cellooligosaccharide-containing composition to a relative transepidermal water loss of purified water using a relative transepidermal water loss 2 hours after applications of the aqueous cellooligosaccharide solution and a relative transepidermal water loss obtained from purified water to the rough skin. This value is obtained by the following expression. Recovery-promoting rate(%)=([relative transepidermal water loss of water)−[relative transepidermal water loss of cellooligosaccharide-containing composition]/(relative transepidermal water loss of water)×100
Furthermore, a relative value of the above-mentioned transepidermal water loss (relative transepidermal water loss) can be measured by transepidermal water loss (TEWL) in the rough skin. First, the inner side of the forearm (test site) is wiped with 70% ethanol and habituated in a room with a constant temperature and a humidity (room temperature 22° C., humidity 45%) for 15 minutes, and the test site is measured with a 2-channel moisture loss monitor (manufactured by Asahi Biomed, TW-AS type to obtain the initial TEWL value (TEWEL0). Then, after measurement of the initial TEWL, the test site is washed with water, the test site is coated with 2% by mass of sodium dodecylsulfate (SDS, by a closed patch and washed with water using a Finn chamber (manufactured by Epitest), and then TEWL (TSWL rough skin) is measured in the same manner as described above. Then purified water or the aqueous cellooligosaccharide solution of the present invention is applied to the same site, and TEWL at the site is measured 2 hours after application (TEWL2) by the above-described method. […]

OC[C@H]1O[C@@H](O[C@H]2[C@H](O)[C@@H](O)[C@H](O)O[C@@H]2CO)[C@H](O)[C@@H](O)[C@@H]1O [D-cellobiose]
oil retention [1]: 0.85

OC[C@H]1O[C@H](OC[C@H]2O[C@H](O[C@]3(CO)O[C@H](CO)[C@@H](O)[C@@H]3O)[C@H](O)[C@@H](O)[C@@H]2O)[C@H](O)[C@@H](O)[C@H]1O [compound 9, raffinose]
relative TEWL value after 2 hours ([2]; SDS-treated forearm skin of 3 male and 2 female subjects, rough skin taken as 100, 2 hours after application): 42.1% | TEWL RECOVERY-PROMOTING RATE AFTER 2 HOURS ([2]; relative to purified water, 2 hours after application): −7.1%

OC[C@H]1O[C@H](OC[C@H]2O[C@H](O[C@]3(CO)O[C@H](CO)[C@@H](O)[C@@H]3O)[C@H](O)[C@@H](O)[C@@H]2O)[C@H](O)[C@@H](O)[C@H]1O [compound 13, raffinose]
relative TEWL value ([2]; measured in the same manner as in Examples 19 to 23, 5% by mass): 42.1%
